Experimental data taken from paper doi:10.1101/2021.09.30.462449v1 (biorxiv, 2021).

How the values were obtained:
Assay in all cases: biochemical
Details in all cases: read-out: % inhibition mean (Lanthascreen)
[1] = biological target: MET D1228H (Homo sapiens, UniProt P08581, D1228H)
[2] = biological target: ERN2 (Homo sapiens, UniProt Q76MJ5)
[3] = biological target: RIPK2 (Homo sapiens, UniProt O43353)
[4] = biological target: PRKACB (PRKAC beta) (Homo sapiens, UniProt P22694)
[5] = biological target: MYLK (MLCK) (Homo sapiens, UniProt Q15746)
[6] = biological target: KIT T670E (Homo sapiens, UniProt P10721, T670E)
[7] = biological target: STK38 (NDR) (Homo sapiens, UniProt Q15208)
Chain of STK38 (NDR) (Q15208 whole entry): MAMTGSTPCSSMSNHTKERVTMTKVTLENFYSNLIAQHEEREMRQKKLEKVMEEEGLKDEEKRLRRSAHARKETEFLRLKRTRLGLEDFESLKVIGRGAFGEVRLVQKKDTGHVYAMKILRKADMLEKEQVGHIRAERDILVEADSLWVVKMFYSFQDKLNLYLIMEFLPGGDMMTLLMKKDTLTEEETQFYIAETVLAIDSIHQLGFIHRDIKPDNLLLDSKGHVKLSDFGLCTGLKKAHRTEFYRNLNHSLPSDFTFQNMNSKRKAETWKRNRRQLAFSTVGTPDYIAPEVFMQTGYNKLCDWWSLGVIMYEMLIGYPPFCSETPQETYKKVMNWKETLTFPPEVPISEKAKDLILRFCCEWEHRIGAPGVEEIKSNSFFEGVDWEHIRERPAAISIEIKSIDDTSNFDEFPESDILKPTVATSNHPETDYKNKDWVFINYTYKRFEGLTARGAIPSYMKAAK

[8] = biological target: BMPR2 (Homo sapiens, UniProt Q13873)
Chain of BMPR2 (Q13873 whole entry): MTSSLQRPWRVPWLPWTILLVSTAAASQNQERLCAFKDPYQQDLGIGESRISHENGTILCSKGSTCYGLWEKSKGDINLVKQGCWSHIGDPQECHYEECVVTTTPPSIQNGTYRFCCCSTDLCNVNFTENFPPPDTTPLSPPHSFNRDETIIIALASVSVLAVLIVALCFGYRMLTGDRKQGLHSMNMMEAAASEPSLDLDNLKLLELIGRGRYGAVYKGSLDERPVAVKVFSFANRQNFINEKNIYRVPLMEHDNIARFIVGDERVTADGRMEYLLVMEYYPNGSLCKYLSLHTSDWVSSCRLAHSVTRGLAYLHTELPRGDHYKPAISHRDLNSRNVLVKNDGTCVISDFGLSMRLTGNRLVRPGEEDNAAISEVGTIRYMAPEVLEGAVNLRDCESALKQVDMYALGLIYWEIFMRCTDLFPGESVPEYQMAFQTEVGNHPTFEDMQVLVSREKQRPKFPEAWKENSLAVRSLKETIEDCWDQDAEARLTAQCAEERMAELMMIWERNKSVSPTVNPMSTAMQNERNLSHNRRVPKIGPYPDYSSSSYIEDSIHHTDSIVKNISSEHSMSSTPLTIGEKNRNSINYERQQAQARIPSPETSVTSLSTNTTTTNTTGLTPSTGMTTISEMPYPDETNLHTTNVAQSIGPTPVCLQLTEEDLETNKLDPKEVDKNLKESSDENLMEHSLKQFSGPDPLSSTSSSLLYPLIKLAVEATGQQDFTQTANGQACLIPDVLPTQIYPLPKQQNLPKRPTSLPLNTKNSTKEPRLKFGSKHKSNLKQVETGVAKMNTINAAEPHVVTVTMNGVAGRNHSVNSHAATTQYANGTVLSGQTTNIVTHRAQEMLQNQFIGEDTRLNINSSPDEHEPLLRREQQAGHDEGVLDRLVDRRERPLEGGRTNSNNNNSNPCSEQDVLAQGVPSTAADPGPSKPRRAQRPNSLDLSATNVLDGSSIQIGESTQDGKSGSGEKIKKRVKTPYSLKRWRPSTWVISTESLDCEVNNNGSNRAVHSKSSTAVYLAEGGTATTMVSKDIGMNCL

[9] = biological target: EPHA7 (Homo sapiens, UniProt Q15375)
Chain of EPHA7 (Q15375 whole entry): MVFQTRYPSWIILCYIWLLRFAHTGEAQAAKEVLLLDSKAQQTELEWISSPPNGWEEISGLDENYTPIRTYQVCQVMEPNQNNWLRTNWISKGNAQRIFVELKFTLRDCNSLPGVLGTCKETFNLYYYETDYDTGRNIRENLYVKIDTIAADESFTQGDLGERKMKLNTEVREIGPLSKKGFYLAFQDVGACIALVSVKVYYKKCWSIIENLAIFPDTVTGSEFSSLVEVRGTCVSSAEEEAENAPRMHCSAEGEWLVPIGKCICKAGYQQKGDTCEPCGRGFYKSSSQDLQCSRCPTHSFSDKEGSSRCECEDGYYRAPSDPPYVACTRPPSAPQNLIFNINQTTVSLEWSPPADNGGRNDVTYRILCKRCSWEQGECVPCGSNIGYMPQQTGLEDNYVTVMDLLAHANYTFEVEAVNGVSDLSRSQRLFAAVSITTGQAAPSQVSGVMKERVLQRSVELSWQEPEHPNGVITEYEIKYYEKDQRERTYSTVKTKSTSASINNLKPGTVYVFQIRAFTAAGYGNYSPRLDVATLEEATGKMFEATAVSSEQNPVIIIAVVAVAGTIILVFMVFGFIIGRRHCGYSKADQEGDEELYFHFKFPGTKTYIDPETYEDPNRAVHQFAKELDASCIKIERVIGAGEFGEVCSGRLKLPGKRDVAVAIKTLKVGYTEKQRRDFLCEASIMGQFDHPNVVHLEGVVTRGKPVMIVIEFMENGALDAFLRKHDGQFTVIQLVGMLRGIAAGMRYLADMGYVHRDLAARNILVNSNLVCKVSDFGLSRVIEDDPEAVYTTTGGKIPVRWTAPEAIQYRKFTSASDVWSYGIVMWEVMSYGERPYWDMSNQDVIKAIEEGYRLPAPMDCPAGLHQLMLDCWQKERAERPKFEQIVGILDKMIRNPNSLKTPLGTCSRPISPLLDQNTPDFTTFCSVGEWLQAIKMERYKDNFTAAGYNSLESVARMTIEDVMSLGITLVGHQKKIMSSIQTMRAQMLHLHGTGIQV

[10] = biological target: CDK2/cyclin E1 (Homo sapiens, UniProt P24941)
[11] = biological target: MAP3K3 (MEKK3) (Homo sapiens, UniProt Q99759)
[12] = biological target: MAP3K2 (MEKK2) (Homo sapiens, UniProt Q9Y2U5)
[13] = biological target: AMPK (A1/B1/G3) (Homo sapiens, UniProt Q13131)
[14] = biological target: DDR2 T654M (Homo sapiens, UniProt Q16832, T654M)
[15] = biological target: ULK2 (Homo sapiens, UniProt Q8IYT8)
[16] = biological target: MAP3K7/MAP3K7IP1 (TAK1-TAB1) (Homo sapiens, UniProt O43318)
[17] = biological target: TEK (TIE2) R849W (Homo sapiens, UniProt Q02763, R849W)
[18] = biological target: TAOK3 (JIK) (Homo sapiens, UniProt Q9H2K8)
[19] = biological target: KIT V559D T670I (Homo sapiens, UniProt P10721, T670I/V559D)
[20] = biological target: STK16 (PKL12) (Homo sapiens, UniProt O75716)
[21] = biological target: BMPR1B (ALK6) (Homo sapiens, UniProt O00238)
[22] = biological target: MAPK8 (JNK1) (Homo sapiens, UniProt P45983)
[23] = biological target: TESK2 (Homo sapiens, UniProt Q96S53)
[24] = biological target: CDC7/DBF4 (Homo sapiens, UniProt O00311)
Chain of CDC7/DBF4 (O00311 whole entry): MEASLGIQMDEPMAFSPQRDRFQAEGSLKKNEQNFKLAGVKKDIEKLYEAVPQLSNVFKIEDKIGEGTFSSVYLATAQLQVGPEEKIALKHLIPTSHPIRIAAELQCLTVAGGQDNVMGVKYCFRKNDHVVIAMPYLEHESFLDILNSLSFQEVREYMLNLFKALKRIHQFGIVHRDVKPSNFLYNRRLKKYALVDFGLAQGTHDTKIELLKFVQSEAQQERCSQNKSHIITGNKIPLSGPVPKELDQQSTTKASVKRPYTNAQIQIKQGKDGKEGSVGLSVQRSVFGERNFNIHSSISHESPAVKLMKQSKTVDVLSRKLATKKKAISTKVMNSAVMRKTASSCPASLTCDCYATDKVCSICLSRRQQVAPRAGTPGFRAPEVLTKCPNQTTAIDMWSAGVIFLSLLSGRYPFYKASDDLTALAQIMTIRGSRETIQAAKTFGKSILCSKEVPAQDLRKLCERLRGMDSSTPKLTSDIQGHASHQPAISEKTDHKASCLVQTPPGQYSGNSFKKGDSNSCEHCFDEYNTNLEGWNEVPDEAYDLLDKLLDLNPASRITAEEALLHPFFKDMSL
Chain of CDC7/DBF4 (Q9UBU7 whole entry partner): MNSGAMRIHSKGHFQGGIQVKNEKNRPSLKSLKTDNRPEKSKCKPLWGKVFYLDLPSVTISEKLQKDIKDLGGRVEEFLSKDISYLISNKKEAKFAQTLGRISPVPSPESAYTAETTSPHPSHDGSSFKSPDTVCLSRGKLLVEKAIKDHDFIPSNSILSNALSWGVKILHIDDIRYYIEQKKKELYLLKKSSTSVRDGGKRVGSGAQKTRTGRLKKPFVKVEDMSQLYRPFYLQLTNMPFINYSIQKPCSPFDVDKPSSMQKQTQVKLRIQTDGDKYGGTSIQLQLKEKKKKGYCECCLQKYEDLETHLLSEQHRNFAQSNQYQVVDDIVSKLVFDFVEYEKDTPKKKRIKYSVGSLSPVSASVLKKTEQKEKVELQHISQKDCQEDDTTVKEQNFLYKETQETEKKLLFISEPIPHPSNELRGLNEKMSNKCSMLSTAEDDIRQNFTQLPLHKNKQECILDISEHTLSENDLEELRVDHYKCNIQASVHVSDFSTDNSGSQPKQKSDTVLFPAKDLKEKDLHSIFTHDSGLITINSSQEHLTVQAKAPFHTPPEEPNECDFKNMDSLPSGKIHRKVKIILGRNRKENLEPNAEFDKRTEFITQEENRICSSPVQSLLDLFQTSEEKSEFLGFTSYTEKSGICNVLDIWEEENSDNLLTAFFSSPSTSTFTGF

[25] = biological target: CLK4 (Homo sapiens, UniProt Q9HAZ1)
[26] = biological target: ULK3 (Homo sapiens, UniProt Q6PHR2)
Chain of ULK3 (Q6PHR2 whole entry): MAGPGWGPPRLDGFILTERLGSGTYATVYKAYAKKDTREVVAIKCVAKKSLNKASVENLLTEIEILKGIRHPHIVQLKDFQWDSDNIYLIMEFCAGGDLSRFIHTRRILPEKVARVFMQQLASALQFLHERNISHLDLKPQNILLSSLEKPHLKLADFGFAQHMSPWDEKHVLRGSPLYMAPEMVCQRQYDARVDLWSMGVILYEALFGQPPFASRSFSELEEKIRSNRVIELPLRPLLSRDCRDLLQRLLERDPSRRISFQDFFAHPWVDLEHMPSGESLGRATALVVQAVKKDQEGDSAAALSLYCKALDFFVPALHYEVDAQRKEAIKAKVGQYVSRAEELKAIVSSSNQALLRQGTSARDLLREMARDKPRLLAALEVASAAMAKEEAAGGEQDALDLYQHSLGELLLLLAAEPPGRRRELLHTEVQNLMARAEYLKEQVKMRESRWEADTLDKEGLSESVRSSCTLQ

[27] = biological target: KIT D816V (Homo sapiens, UniProt P10721, D816V)
[28] = biological target: CDK3/cyclin E1 (Homo sapiens, UniProt Q00526)

Chain of RIPK2 (O43353 whole entry): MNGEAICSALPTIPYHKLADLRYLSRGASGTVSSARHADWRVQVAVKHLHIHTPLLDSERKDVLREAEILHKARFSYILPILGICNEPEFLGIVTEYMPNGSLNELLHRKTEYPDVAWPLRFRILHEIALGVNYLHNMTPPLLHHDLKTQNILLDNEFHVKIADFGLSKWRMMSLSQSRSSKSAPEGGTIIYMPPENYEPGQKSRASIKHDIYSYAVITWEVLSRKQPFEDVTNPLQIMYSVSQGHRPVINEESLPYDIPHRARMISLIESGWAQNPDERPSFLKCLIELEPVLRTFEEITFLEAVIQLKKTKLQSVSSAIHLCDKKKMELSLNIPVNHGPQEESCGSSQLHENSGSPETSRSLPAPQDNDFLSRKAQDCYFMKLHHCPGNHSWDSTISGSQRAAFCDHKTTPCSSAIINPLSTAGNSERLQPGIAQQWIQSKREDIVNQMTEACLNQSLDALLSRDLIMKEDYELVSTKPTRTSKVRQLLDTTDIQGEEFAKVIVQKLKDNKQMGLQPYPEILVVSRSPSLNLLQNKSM

COc1ccc2nc3cc(Cl)ccc3c(Nc3cc(CN4CCCC4)c(O)c(CN4CCCC4)c3)c2n1 [Pyronaridine, 4-[(7-Chloro-2-methoxybenzo[b][1,5]naphthyridin-10-yl)amino]-2,6-bis(1-pyrrolidinylmethyl)phenol phosphate (1:4)]
inhibition at 1 µM [1]: 3%
inhibition at 1 µM [2]: 6%
inhibition at 1 µM [3]: 1%
inhibition at 1 µM [4]: 12%
inhibition at 1 µM [5]: 4%
inhibition at 1 µM [6]: 1%
inhibition at 1 µM [7]: 2%
inhibition at 1 µM [8]: 8%
inhibition at 1 µM [9]: -3%
inhibition at 1 µM [10]: 0%
inhibition at 1 µM [11]: -3%
inhibition at 1 µM [12]: 7%
inhibition at 1 µM [13]: -1%
inhibition at 1 µM [14]: -11%
inhibition at 1 µM [15]: 2%
inhibition at 1 µM [16]: 1%
inhibition at 1 µM [17]: -3%
inhibition at 1 µM [18]: -2%
inhibition at 1 µM [19]: -10%
inhibition at 1 µM [20]: 5%
inhibition at 1 µM [21]: -3%
inhibition at 1 µM [22]: 3%
inhibition at 1 µM [23]: -3%
inhibition at 1 µM [24]: -6%
inhibition at 1 µM [25]: 6%
inhibition at 1 µM [26]: 8%
inhibition at 1 µM [27]: -3%
inhibition at 1 µM [28]: 3%
